Test results as given in the NIST ThermoML archive (doi:10.1021/je0340699).

Experiment: molar heat capacity at saturation pressure
Details: Liquid, Large sample (1 g) DSC

CCOC(C)(C)C [2-ethoxy-2-methylpropane]
Details	molar heat capacity [J/K/mol]
277.14 K	211.4
281.17 K	213.3
283.15 K	214.2
285.16 K	215.2
287.15 K	216
289.16 K	216.9
291.14 K	217.7
293.14 K	218.5
295.15 K	219.3
297.14 K	220.1
299.15 K	220.9
301.14 K	221.7
303.16 K	222.6
305.14 K	223.3
307.15 K	224.2
309.14 K	225.3
311.15 K	225.9
313.14 K	226.7
315.16 K	227.6
317.14 K	228.6
319.15 K	229.5
321.14 K	230.1
323.15 K	231
325.14 K	231.7
327.16 K	232.6
329.15 K	233.3
331.16 K	234.2
333.15 K	235.1
335.16 K	235.9
338.16 K	237.1
339.14 K	237.4
341.15 K	238.1

CCC(C)(C)OC [2-methoxy-2-methylbutane]
Details	molar heat capacity [J/K/mol]
279.16 K	206.8
281.15 K	207.7
283.16 K	208.5
285.16 K	209.3
287.16 K	210.2
289.16 K	211
291.17 K	211.7
293.15 K	212.5
295.15 K	213.5
297.16 K	214.5
299.16 K	215.3
301.14 K	216.1
303.14 K	216.9
305.15 K	217.8
307.15 K	218.3
309.15 K	219.1
311.16 K	220.1
313.16 K	220.6
315.13 K	221.3
317.13 K	222.1
319.14 K	222.8
321.14 K	223.5
323.14 K	224.5
325.15 K	225
327.16 K	225.7
329.16 K	226.7
331.17 K	227.4
333.13 K	228.1
335.14 K	228.9
337.14 K	229.7
339.15 K	230.4
341.16 K	231
343.17 K	231.9
345.14 K	232.6
347.14 K	233.5
349.15 K	234.3
351.15 K	234.9
353.16 K	235.7
355.14 K	236.4

COC(C)(C)C [2-methoxy-2-methylpropane]
Details	molar heat capacity [J/K/mol]
277.15 K	180.9
279.15 K	181.4
281.16 K	182.3
283.15 K	183.1
285.15 K	183.8
287.14 K	184.4
289.16 K	185.3
291.15 K	186
293.16 K	186.8
295.15 K	187.7
297.14 K	188.3
299.14 K	189
301.16 K	189.7
303.16 K	190.4
305.15 K	191.1
307.15 K	191.8
309.16 K	192.6
311.16 K	193.2
313.15 K	193.9
315.15 K	194.6
317.14 K	195.2
319.16 K	196
321.15 K	196.5
323.15 K	197.3
325.15 K	198

CC(C)OC(C)C [diisopropyl ether]
Details	molar heat capacity [J/K/mol]
277.17 K	207.7
279.16 K	208.5
281.15 K	209.4
283.14 K	210.4
285.16 K	211.3
287.16 K	212.2
289.15 K	213.1
291.17 K	214
293.15 K	214.8
295.16 K	215.5
297.16 K	216.3
299.16 K	217.2
301.16 K	218
303.15 K	218.7
305.14 K	219.5
307.14 K	220.3
309.16 K	221
311.15 K	222
313.15 K	222.7
315.15 K	223.6
317.17 K	224.4
319.16 K	225.1
321.15 K	225.9
323.14 K	226.7
325.14 K	227.4
327.13 K	228.3
329.16 K	229
331.15 K	229.9
333.15 K	230.5
335.14 K	231.4
337.14 K	232.2
